“Also recorded” adds a separate entry of the source.
What was measured:
patients with CHF = conditions: cited from earlier work
[1] = tested on: sensitized and allergen-challenged mice; experiment: Acute nadolol with aminophylline, methacholine-induced bronchoconstriction; type: in vivo; conditions: aminophylline 100 mg/kg i.p. during methacholine; untreated and nadolol-treated mice
Experimental: Mice were sensitized to the allergen ovalbumin as described in Example 1. […] At time point 1 (time=−10 min) baseline airway resistance of the mice was determined. At time point 2 (time=−5 min) methacholine was infused into mice to reach their EC70.

asthmatic mice [2] = experiment: Airway resistance (Raw) response to methacholine provocation in murine model of asthma (forced oscillation); type: in vivo, Balb/cJ mice; conditions: 7 days, metoprolol 20 mg/kg 3× daily subcutaneous, timolol 20 mg/kg in chow
asthmatic mice [3] = experiment: Combination therapy carvedilol and salbutamol on airway hyperresponsiveness; type: in vivo, Balb/cJ mice; conditions: 28 days carvedilol 2400 ppm in chow, alone or with salbutamol chronic (0.5 mg/kg/day) or acute ([…]); highest dose of methacholine
Experimental: Mice (Balb/cJ) aged 6 weeks were housed under specific pathogen-free conditions and fed a chicken ovalbumin-free diet. Mice were systemically sensitized with ovalbumin adsorbed to aluminum hydroxide. Mice were treated as follows: CAR/SAL 28D=for 28 days mice (n=6-12) were administered carvedilol (2400 ppm in animal chow) and salbutamol (subcutaneous delivery of 0.5 mg/kg/day in an Alzet #2400 osmotic minipump); NTX S/C=mice (n=6-12) no drug treatment for 28 days; CTRL=mice (n=6-12) no drug treatment for 28 days, not subsequently challenged; CARHD 28D=for 28 days mice (n=6-12) were administered carvedilol only (2400 ppm in animal chow); CARHD 28D SAL AC=for 28 days mice (n=6-12) were administered carvedilol (2400 ppm in animal chow) and 15 minutes prior to measuring airway hyperresponsiveness, salbutamol was administered at a dose of […].
To measure airway hyperresponsiveness after 28 days, all mice except the CTRL (control) mice were challenged with ovalbumin and then all mice were anesthetized, tracheotomized, and connected to a Flexivent small animal ventilator to measure airway resistance (Raw) by the forced oscillation technique. To induce airway constriction, a solution containing 150 μg/mL of methacholine was infused using a syringe infusion pump. The methacholine infusion was started at 0.008 mL/min and its rate was doubled stepwise up to a maximum […]. […]

β2-adrenergic receptor [4] = experiment: β-adrenergic receptor density in lung membranes of treated asthmatic mice by ICYP radioligand binding; type: in vivo; conditions: 2 days of administration
Experimental: (§1) β2-adrenergic receptor numbers were measured in asthmatic mice as follows. […] Mice were sacrificed and lung membranes were isolated as follows. Frozen lung tissue was homogenized in an ice-cold buffer containing 0.32 M sucrose and 25 mM Tris (pH 7.4) using a polytron (Pro 200, Pro Scientific, Inc.). The homogenate was centrifuged at 1000×g for 10 min at 4° C. The resulting supernatant was centrifuged at 40,000×g for 20 min at 4° C. The pellet was suspended in an ice-cold 25 mM Tris-HCl buffer (pH 7.4) and centrifuged at 40,000×g for 20 min at 4° C. The final pellet was suspended in 200 μL of 25 mM Tris-HCl (pH 7.4); membrane protein concentration was determined by BCA protein assay kit. […] The incubation was done at 37° C. for 2 h and terminated by rapid vacuum filtration through glass fiber filters. The filters were washed three times with 250 μL of cold wash buffer (25 mM Tris-HCl, pH 7.4) and the radioactivity determined in a counter. […] Receptor densities are expressed as femtomoles of sites per milligram of protein. Bmax is determined by nonlinear regression of the saturation binding curves.

β2-adrenergic receptor [5] = molecular target: β2-adrenergic receptor (Mus musculus, UniProt P18762); experiment: as above; type: in vivo; conditions: for Bmax (β-adrenergic receptor density): 15 Minutes drug treatment
Experimental: as §1

asthmatic mice [6] = experiment: Airway resistance (Raw) response to methacholine provocation in murine model of asthma (forced oscillation); type: in vivo, Balb/cJ mice
Experimental: Balb/cJ mice aged 6 weeks (Jackson Animal Laboratory, Bar Harbor, Me.) were housed under specific pathogen-free conditions and fed a chicken ovalbumin-free diet. The Animal Research Ethics Boards of both the University of Houston and the Baylor College of Medicine approved all experiments reported here. […] Mice were sensitized with subcutaneous injection of 25 μg of ovalbumin adsorbed to aluminum hydroxide on protocol days 2, 9, and 16. Subsequently, mice were given 50 μL of saline solution containing 25 μg of ovalbumin intranasally, on a daily basis, from protocol days 23 through 27. A group of ovalbumin-sensitized saline-challenged mice serves as controls for systemic sensitization and respiratory challenges with ovalbumin. Prior to intranasal administrations, mice were sedated with halothane vapor.
To examine the effects of duration of β-adrenergic ligand therapy on the phenotype of the murine model of asthma, the experimental drugs were administered either acutely or chronically to different groups of asthmatic mice.
Asthmatic mice on acute therapy were given a single intravenous bolus infusion of either β-adrenergic drug or normal saline on protocol day 28, 15 minutes before airway responsiveness to methacholine was determined. […] Asthmatic mice on chronic therapy were treated with the β-adrenergic drug during protocol days 1 to 28. […] These concentrations were chosen based on those producing therapeutic effects in mice in previously published studies. The non-asthmatic mice were fed normal chow.
On protocol day 28, mice were anesthetized, tracheotomized, and connected to a computer-controlled small animal ventilator (Flexivent, Scientific Respiratory Equipment, Inc., Montreal, Canada). Airway resistance (Raw) was measured using the forced oscillation technique. The cellular composition of bronchoalveolar lavage fluid (BALF) was also determined.
To induce airway constriction, a solution containing 150 μg/mL of acetyl-α-methylcholine chloride (methacholine) (Sigma Chemical, St. Louis, Mo.) was infused intravenously at constant rates using a syringe infusion pump (Raze Scientific Instruments, Stanford, Conn.). […] Each methacholine dose was administered for 3 to 5 minutes, during which data were sampled at 1-minute intervals and then averaged.
The complex input impedance of the respiratory system was computed and the value of the real part of respiratory system impedance at 19.75 Hz was taken to reflect the magnitude of airway resistance (Raw). To examine the degree of airway responsiveness of each animal, the values for Raw as a function of methacholine doses were plotted. The largest value for Raw achieved in response to methacholine stimulation was referred to as Rawpeak. For mice that achieved a plateau in the methacholine dose-Raw response curve, the ED50 was calculated by linear interpolation using the GraphPad Prism4 (GraphPad Software, Inc.). […] The Bonferroni test was used to examine the statistical differences between experimental groups. The effects of acute drug treatments on baseline respiratory system mechanics were assessed using a two-tailed paired t-test. A value of P<0.05 was considered significant.
For these experiments, salbutamol was used for chronic administration at 0.5 mg/kg/day with a minipump and for acute administration at 0.15 mg/kg by i.v. bolus 15 minutes prior to challenge. Alprenolol was used at a high dose of 7200 ppm in chow or at a low dose of 720 ppm in chow. Carvedilol was used at a high dose of 2400 ppm in chow or at a low dose of 720 ppm in chow.

[7] = cited from earlier work
[8] = acute administration; cited from earlier work
β-adrenergic receptor = conditions: U.S. Pat. No. 5,116,867; cited from earlier work
tracheas from the mice = conditions: asthmatic mice chronically treated; WO 02/29534; cited from earlier work
[9] = large trial; cited from earlier work
[10] = lung membranes of asthmatic mice, mean±SEM
[11] = 28 Days drug treatment, lung membranes of asthmatic mice, mean±SEM
[12] = asthmatic mice, chronic: 28 days (chow; salbutamol by osmotic minipump)

Chain of β2-adrenergic receptor (Mus musculus, UniProt P18762) (P18762 whole entry): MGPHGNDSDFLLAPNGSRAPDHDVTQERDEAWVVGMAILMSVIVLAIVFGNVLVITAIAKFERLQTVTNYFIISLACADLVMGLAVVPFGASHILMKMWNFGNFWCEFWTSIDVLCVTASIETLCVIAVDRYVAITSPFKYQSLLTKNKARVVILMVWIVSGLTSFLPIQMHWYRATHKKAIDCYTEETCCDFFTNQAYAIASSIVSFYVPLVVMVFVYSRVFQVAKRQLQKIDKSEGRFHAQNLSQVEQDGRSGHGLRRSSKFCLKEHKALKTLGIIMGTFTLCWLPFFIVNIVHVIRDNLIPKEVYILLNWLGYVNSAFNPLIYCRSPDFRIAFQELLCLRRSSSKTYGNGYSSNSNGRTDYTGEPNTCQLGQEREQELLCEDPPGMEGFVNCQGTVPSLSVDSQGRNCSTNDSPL

CC(C)(Cc1c[nH]c2ccccc12)NCC(O)COc1ccccc1C#N (stereo not shown) [Bucindolol, bucindolol]
clinical benefit in congestive heart failure (patients with CHF): failed to demonstrate any benefit over placebo

Cn1c(=O)c2[nH]cnc2n(C)c1=O [aminophylline]
airway resistance after aminophylline administration [1]: significant and sustained drop in airway resistance; also recorded: can alleviate the acute effects on airway hyperresponsiveness of nadolol administration

CC(C)(C)NC[C@H](O)COc1nsnc1N1CCOCC1 [timolol]
airway hyperresponsiveness (Raw) to methacholine (asthmatic mice [2]): effective in reducing airway hyperresponsiveness in asthmatic mice

COc1ccccc1OCCNCC(O)COc1cccc2[nH]c3ccccc3c12 (stereo not shown) [Carvedilol, carvedilol]
clinical benefit in congestive heart failure (patients with CHF): significant mortality reduction | bronchoconstriction / airway hyperresponsiveness to methacholine (asthmatic mice [3]): higher bronchoconstriction than these treatments but less than the non-drug treated sensitized and challenged (NTX S/C) mice | Increased β2AR density (β2-adrenergic receptor [4]): no | Bmax (β-adrenergic receptor density) (β2-adrenergic receptor [5]; [10]): 86.3 ± 19.42 femtomoles of sites per milligram of protein | βmax (β-adrenergic receptor density) (β2-adrenergic receptor [5]; [11]): 904.1 ± 43.46 femtomoles of sites per milligram of protein | Increased β2AR density (β2-adrenergic receptor [5]; 28 days of administration): showed an increase in receptor density | increase of the level of β2-adrenergic receptors over the non-treated mice (β2-adrenergic receptor [5]; chronic administration, versus untreated methacholine-challenged asthmatic mice): over 10 fold | sensitivity of the responsiveness to methacholine (asthmatic mice [6]; asthmatic mice, chronic administration): shifts the sensitivity of the responsiveness to methacholine to lower concentrations | airway responsiveness to methacholine provocation (airway resistance, Raw) (asthmatic mice [6]; [12]): does reduce airway hyperresponsiveness; also recorded: reduced the responsiveness of asthmatic mice to methacholine provocation | protection from airway hyperresponsiveness (asthmatic mice [6]; chronic administration, high and low dose in chow (Example 6)): providing protection from airway hyperresponsiveness

CC(C)(C)NCC(O)c1ccc(O)c(CO)c1 (stereo not shown) [Salbutamol, salbutamol]
Increased β2AR density (β2-adrenergic receptor [4]): no | Bmax (β-adrenergic receptor density) (β2-adrenergic receptor [5]; [10]): 256.5 ± 29.24 femtomoles of sites per milligram of protein | βmax (β-adrenergic receptor density) (β2-adrenergic receptor [5]; [11]): 97.0 ± 23.02 femtomoles of sites per milligram of protein | Kd (β2-adrenergic receptor [5]; 28 Days drug treatment, lung membranes of asthmatic mice, mean±SEM, read-out: KD (apparent, of radioligand ICYP)): 0.225 nM | bioavailability of inhaled drug ([7]; 10 patients with cystic fibrosis versus healthy adults): greater than that in healthy adults | airway responsiveness to methacholine provocation (airway resistance, Raw) (asthmatic mice [6]; asthmatic mice, acute: single intravenous bolus 15 minutes before methacholine): reduced the level of airway responsiveness to methacholine provocation and the level of airway resistance | airway responsiveness to methacholine provocation (airway resistance, Raw) (asthmatic mice [6]; [12]): no protection was observed

CC(C)NC[C@H](O)COc1cccc2ccccc12 [L-form, propranolol]
specific lung resistance [8]: increased specific lung resistance

CC(C)NC[C@@H](O)COc1cccc2ccccc12 [D-propranolol]
potency in inhibiting the β-adrenergic receptor relative to the L-form (β-adrenergic receptor): 1/100 | antigen-induced bronchoconstriction and airway hyperresponsiveness [8]: beneficial in inhibiting antigen-induced bronchoconstriction and reducing airway hyperresponsiveness

Cc1ccc(OCC(O)C(C)NC(C)C)c2c1CCC2 (stereo not shown) [ICI-118,551]
effectiveness on contraction of excised tracheas in response to methacholine (rank) (tracheas from the mice): then ICI-118,551

CC(C)(C)NCC(O)c1cc(O)cc(O)c1 (stereo not shown) [terbutaline]
rate of absorption through the lung ([7]; healthy smokers versus healthy nonsmokers): more rapidly in healthy smokers than in healthy nonsmokers

CCCC1O[C@@H]2C[C@H]3[C@@H]4CCC5=CC(=O)C=C[C@]5(C)[C@H]4[C@@H](O)C[C@]3(C)[C@]2(C(=O)CO)O1 (stereo partly shown) [budesonide]
plasma clearance of the 2 enantiomers per kilogram of bodyweight, children versus adults ([7]; 6 children with asthma versus 11 healthy adults): about 50%

COCCc1ccc(OCC(O)CNC(C)C)cc1 (stereo not shown) [metoprolol]
airway hyperresponsiveness (Raw) to methacholine (asthmatic mice [2]): effective in reducing airway hyperresponsiveness in asthmatic mice | clinical benefit in congestive heart failure (patients with CHF): significant mortality reduction

OCc1cc(C(O)CNCCCCCCOCCCCc2ccccc2)ccc1O (stereo not shown) [salmeterol]
death rates [9]: stopped due to increased death rates

C=CCc1ccccc1OCC(O)CNC(C)C (stereo not shown) [Alprenolol, alprenolol]
Increased β2AR density (β2-adrenergic receptor [4]): no | Bmax (β-adrenergic receptor density) (β2-adrenergic receptor [5]; [10]): 299.5 ± 12.19 femtomoles of sites per milligram of protein | βmax (β-adrenergic receptor density) (β2-adrenergic receptor [5]; [11]): 179.2 ± 53.05 femtomoles of sites per milligram of protein | effectiveness on contraction of excised tracheas in response to methacholine (rank) (tracheas from the mice): most effective compound | airway responsiveness to methacholine provocation (airway resistance, Raw) (asthmatic mice [6]; [12]): does not reduce airway hyperresponsiveness compared to untreated asthmatic mice; also recorded: provides no benefit upon chronic administration
